Consider 3 compounds from US20240215575A1, “METHOD OF PREPARING 1-(2,2-DIMETHYLPROPYL)-CYCLOPROPENE AS SPRAYABLE ETHYLENE ANTAGONIST IN PLANTS AND USES THEREOF” (KYUNG SANG NAM DO, priority 2022, published 2024).

SMILES strings stand for the structures. In brackets after ≈: the same amount, converted by molar mass. Like-named read-outs stand apart in the source and are kept apart here.

For series [1] the following is noted: cited from earlier work.
Series [2] has as its system Taechu sweet persimmon fruits. The series can be described thus: 1-DCP spray treatment of Taechu sweet persimmon fruits on the tree, flesh hardness during room temperature storage. It is filed as in vivo, sweet persimmon (Taechu variety). On the procedure:
In particular, four sweet persimmon trees of the Taechu variety were selected on October 7th at the Sweet Persimmon Research Institute Orchard located in Jinyeong-eup, Gyeongsangnam-do, and the fruits growing on two of these trees (control group) were treated with a solution containing 0.025% wetting agent (Carba, Farmhannong), and the fruits of the other two trees (treatment group) were sprayed with an aqueous emulsion containing 1 mM 1-DCP and 0.025% wetting agent using a manual sprayer. Fruits in each treatment group were harvested on October 24, and measured/observed for changes in flesh hardness after 7 days and 14 days while being stored at room temperature.

Series [3] in a line: Storage stability of 1-DCP and its cyclodextrin inclusion complex. The format is physicochemical.
The next series has as its system banana fruits. The series can be described thus: 1-DCP immersion treatment of immature banana fruit followed by ethylene exposure. It is filed as in vivo. How it is done:
In particular, immature banana fruits were harvested from a banana farm in Sancheong-gun, Gyeongsangnam-do and transported to the laboratory, and on the same day, the fruits were separated into two groups: the fruits (16) in Group A (control group) were immersed in a 0.025% wetting agent (Carba, FarmHannong) solution not containing 1-DCP, and the fruits (16) in Group B (treatment group) were immersed in a 1 mM 1-DCP aqueous emulsion for 1 second, respectively, to wet the surface with the solution, and then dried at room temperature. Subsequently the next day, half of the fruits (8 each) from groups A and B were divided into two 40 L containers, sealed, and then injected with ethylene gas, thus exposing the fruits to 10 ppm of ethylene for 24 hours. The treated banana fruits were then stored at room temperature and observed for the degree of ripening after 7 days and after 14 days.

In the case of `OC[C@H]1O[C@@H]2O[C@H]3[C@H](O)[C@@H](O)[C@@H](O[C@H]4[C@H](O)[C@@H](O)[C@@H](O[C@H]5[C@H](O)[C@@H](O)[C@@H](O[C@H]6[C@H](O)[C@@H](O)[C@@H](O[C@H]7[C@H](O)[C@@H](O)[C@@H](O[C@H]8[C@H](O)[C@@H](O)[C@@H](O[C@H]1[C@H](O)[C@H]2O)O[C@@H]8CO)O[C@@H]7CO)O[C@@H]6CO)O[C@@H]5CO)O[C@@H]4CO)O[C@@H]3CO` [β-cyclodextrin], the solubility in water entry in series [1] (compared to the alpha type) is given as “extremely low solubility in water”.

`CC(C)(C)CC1=CC1` [1-DCP, 1-(2,2-dimethylpropyl)-cyclopropene] yielded a flesh hardness in series [2] (spray of 1 mM 1-DCP aqueous emulsion with 0.025% wetting agent, after 7 days of storage at room temperature) of 19.5 N. In addition, the “inhibition of ethylene action” value is “effectively inhibits ethylene action” in series [2] (spray treatment, 1 mM or less, Taechu fruits) and “effectively inhibits ethylene action” with banana fruits (immersion treatment, 1 mM or less, banana fruits). Further, the “storage stability (polymerization)” value in series [3] (refrigerated conditions) is reported as “polymerization occurred within a few days”. For the same compound, the storage stability result in series [3] (room temperature) is given as “storage at room temperature for more than one day was impossible”; in series [3] (stored in a −40° C. freezer) it was “several months or more”. In addition, in the series on banana fruits (1 mM 1-DCP aqueous emulsion, immersion for 1 second, 10 ppm ethylene for 24 hours, room temperature storage, observed after 7 and 14 days), the degree of ripening entry was “maintained a more immature state than the fruits of Group A up to 14 days”.

In the case of `OC[C@H]1O[C@@H]2O[C@H]3[C@H](O)[C@@H](O)[C@@H](O[C@H]4[C@H](O)[C@@H](O)[C@@H](O[C@H]5[C@H](O)[C@@H](O)[C@@H](O[C@H]6[C@H](O)[C@@H](O)[C@@H](O[C@H]7[C@H](O)[C@@H](O)[C@@H](O[C@H]1[C@H](O)[C@H]2O)O[C@@H]7CO)O[C@@H]6CO)O[C@@H]5CO)O[C@@H]4CO)O[C@@H]3CO` [a-cyclodextrin, α-cyclodextrin], the solubility in water in series [1] is 140 mg/mL (≈ 144 mM).
